Experimental data taken from ChEMBL document CHEMBL6109178, “Species-Dependent Metabolism of a Covalent nsP2 Protease Inhibitor with In Vivo Antialphaviral Activity” (J Med Chem, 2025).
Active and inactive are the calls of the source. The calls are words filed in the database; no cut-off is given here.

Columns and labels:
Type in all cases: functional, organism-based
Chikungunya virus [1] = test: Antiviral activity against CHIKV infected in male C57BL/6 mouse assessed as reduction in viral level in right quad at 100 mg/kg, administered three times a day and measured after 48 hrs
Chikungunya virus [2] = test: Antiviral activity against CHIKV infected in male C57BL/6 mouse assessed as reduction in viral level in spleen at 100 mg/kg, administered three times a day and measured after 48 hrs
Chikungunya virus [3] = test: Antiviral activity against CHIKV infected in male C57BL/6 mouse assessed as reduction in viral level in right foot at 100 mg/kg, administered three times a day and measured after 48 hrs
Chikungunya virus [4] = test: Antiviral activity against CHIKV infected in male C57BL/6 mouse assessed as reduction in viral level in left foot at 100 mg/kg, administered three times a day and measured after 48 hrs
Chikungunya virus [5] = test: Antiviral activity against CHIKV infected in male C57BL/6 mouse assessed as reduction in viral level in left quad at 100 mg/kg, administered three times a day and measured after 48 hrs
Chikungunya virus [6] = test: Antiviral activity against CHIKV infected in male C57BL/6 mouse assessed as reduction in viral level in serum at 100 mg/kg, administered three times a day and measured after 48 hrs

Question: With `CCOc1ccccc1-c1cc(C(=O)NC/C=C/S(C)(=O)=O)n[nH]1` as the compound, how does the Activity (Chikungunya virus [1]) read?
Answer: Active

Question: And the Activity (Chikungunya virus [2])?
Answer: Active

Question: What about the Activity (Chikungunya virus [3]) of the same compound?
Answer: Active; Viral Level Reduced In 4 Out Of 5 Mouse

Question: What about the Activity (Chikungunya virus [4]) of the same compound?
Answer: inactive

Question: What about the Activity (Chikungunya virus [5]) of the same compound?
Answer: Active

Question: And the Activity (Chikungunya virus [6])?
Answer: Active; Reduction Of Small Level Of Virus Level Observed
